Patent US12528767B2, “HDAC6 inhibitors and uses thereof” (Eikonizo Therapeutics, Inc., priority 2019, dated 2026)

Tested on: adult primary rat dorsal root ganglia (DRG)
Experiment: In vitro chemotherapy-induced peripheral neuropathy in rat DRGs treated with cisplatin
Type: cell-based, Sprague Dawley rat
Details: 5 μM compound + 0.5 mM cisplatin, 4 days
Procedure: ACY-1083, obtained from MedChem Express, is a published HDAC6-selective inhibitor and was used as a benchmark. Blinded DMSO was used as an additional negative control. […] Nerve degeneration was evaluated by blebs per area as visualized by fluorescent imaging of beta tubulin staining. Axon area was also evaluated by fluorescent imaging of beta tubulin staining.
Select exemplary compounds were evaluated for prevention of nerve degeneration in an in vitro chemotherapy induced neuropathy model using adult primary rat dorsal root ganglia (DRG). Compounds were blinded for treatment and analysis, using DMSO as a vehicle control. […] Blebs (fragments) signify the beginning of the nerve degeneration process. Total axon area is related to neuron survival and is a more general measure of neuroprotection.
Dissociation solution (100 mL of HBSS with 2 mL of HEPES (1 M, pH 7.25)) was prepared and precooled to 4° C. on study day 1. A 24 well cell culture plate was coated with ECL. Each well was coated with 0.3 mL of ECL solution (1:25 in sterile PBS) and incubated overnight at 37° C. ECL solution was aspirated and the well plate was rinsed with neurobasal medium on study day 2. […]

## O=C(NO)c1cc(F)c2c(c1)CCN1CCC[C@@H]21 (single isomer, unassigned) [compound 79]
  Axon area compared to vehicle in the presence of cisplatin (FIG. 3B): increased axon area

## O=C(NO)c1ccc(CN2C[C@H]3CC[C@@H]2CO3)c(F)c1 (single isomer, unassigned) [compound 173]
  Nerve degeneration: blebs per area compared to vehicle in the presence of cisplatin (FIG. 3A): decreased blebs per area
